Source: patent publication US20230265479A1 (priority 2020, published 2023)

Experiments:
[1] = test system: Firefly Luciferase reporter gene driven by the C3P3-G2 system in HEK-293 cells; format: cell-based, human
[2] = test system: Firefly Luciferase reporter gene driven by the C3P3-G1 system in HEK-293 cells; format: cell-based, human
EIF2AK2 = EIF2AK2 (Homo sapiens, UniProt P19525); settings: binds ATP-binding site; inhibits RNA-induced EIF2AK2 autophosphorylation (Jammi et al. 2003); cited from earlier work
Chain of EIF2AK2 (P19525 whole entry): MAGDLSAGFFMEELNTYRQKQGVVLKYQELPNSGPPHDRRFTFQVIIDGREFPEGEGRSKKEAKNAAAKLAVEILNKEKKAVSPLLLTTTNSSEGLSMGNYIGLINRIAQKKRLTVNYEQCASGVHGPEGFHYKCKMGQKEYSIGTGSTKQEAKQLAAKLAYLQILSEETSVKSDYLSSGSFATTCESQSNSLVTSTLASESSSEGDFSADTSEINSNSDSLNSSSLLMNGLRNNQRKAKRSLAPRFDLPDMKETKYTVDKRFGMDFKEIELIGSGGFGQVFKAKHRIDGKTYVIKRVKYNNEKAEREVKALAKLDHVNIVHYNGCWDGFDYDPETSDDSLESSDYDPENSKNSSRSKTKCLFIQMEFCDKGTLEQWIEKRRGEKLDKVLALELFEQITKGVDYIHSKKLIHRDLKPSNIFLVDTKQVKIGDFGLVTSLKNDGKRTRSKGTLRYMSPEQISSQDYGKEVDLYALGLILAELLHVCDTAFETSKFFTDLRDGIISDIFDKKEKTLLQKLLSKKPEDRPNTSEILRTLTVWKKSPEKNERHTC

O=C1Nc2ccc3ncsc3c2/C1=C/c1cnc[nH]1 [CAS 608512-97-6]
Maximum efficacy, relative ratio vs. negative control cells [1]: 1.67 fold | Maximum efficacy, relative ratio vs. negative control cells [2]: 1.31 fold | IC50 (EIF2AK2): 0.21 µM
